Laboratory results published in article PMC10353189, “Hybridization of the effective pharmacophores for treatment of epilepsy: design, synthesis, in vivo anticonvulsant activity, and in silico studies of phenoxyphenyl-1,3,4-oxadiazole-thio-N-phenylacetamid hybrids” (BMC Chemistry, 2023).
Where two headings read alike, the source gives them in different places.

Columns and labels:
[1] = system: PTZ-induced lethal convulsion in mice; assay: Pentylenetetrazole (PTZ) induced seizure test; format: in vivo, Male NMRI mice; conditions: Mus musculus; for responders at 2 mg/kg: dose 2 mg/kg ip; for responders at 5 mg/kg: dose 5 mg/kg ip; for responders at 10 mg/kg: dose 10 mg/kg ip; for responders at 50 mg/kg: dose 50 mg/kg ip; for responders at 1 mg/kg: dose 1 mg/kg ip
[2] = system: MES-induced seizure in mice; assay: Maximal electroshock (MES) induced seizure test; format: in vivo, Male NMRI mice; conditions: for responders at 1 mg/kg / responders at 2 mg/kg / responders at 5 mg/kg / responders at 10 mg/kg / responders at 20 mg/kg / responders at 50 mg/kg / responders at 100 mg/kg: Mus musculus; for responders at 1 mg/kg: dose 1 mg/kg ip; for responders at 2 mg/kg / MES Number of animals protected / Number of tested animals: dose 2 mg/kg ip; for responders at 5 mg/kg: dose 5 mg/kg ip; for responders at 10 mg/kg: dose 10 mg/kg ip; for responders at 20 mg/kg: dose 20 mg/kg ip; for responders at 50 mg/kg: dose 50 mg/kg ip; for responders at 100 mg/kg: dose 100 mg/kg ip; for MES Number of animals protected / Number of tested animals: with flumazenil 1 mg/kg ip 15 min before seizure induction
[3] = 30 min before PTZ 100 mg/kg ip, read-out: PTZ Number of animals protected / Number of tested animals
[4] = PTZ 100 mg/kg ip, read-out: PTZ %Protection
[5] = 30 min before PTZ 100 mg/kg ip, read-out: PTZ Number of animals protected / Number of tested animals (converted)
[6] = MES 50 mA, 60 Hz, 0.2 s, read-out: MES Number of animals protected / Number of tested animals (converted)
[7] = MES 50 mA, 60 Hz, 0.2 s, read-out: MES Number of animals protected / Number of tested animals

SMILES	responders at 5 mg/kg [1, 5]	responders at 5 mg/kg [1, 4]	responders at 1 mg/kg [2, 6]	responders at 1 mg/kg ([2]; read-out: MES %Protection)	responders at 2 mg/kg [2, 6]	responders at 2 mg/kg ([2]; read-out: MES %Protection)	responders at 5 mg/kg [2, 6]	responders at 5 mg/kg ([2]; read-out: MES %Protection)	responders at 10 mg/kg [2, 6]	responders at 10 mg/kg ([2]; read-out: MES %Protection)	responders at 20 mg/kg [2, 6]	responders at 20 mg/kg ([2]; read-out: MES %Protection)	further results
O=C(CSc1nnc(-c2ccccc2Oc2ccccc2)o1)Nc1ccc([N+](=O)[O-])cc1 [Compound 8L, N-(4-nitrophenyl)-2-((5-(2-phenoxyphenyl)-1,3,4-oxadiazol-2-yl)thio)acetamide]	25%	25%	25%	25%	25%	25%	75%	75%	50%	50%			responders at 2 mg/kg [1, 3]: 0%; responders at 2 mg/kg [1, 4]: 0%; responders at 10 mg/kg [1, 5]: 0%; responders at 10 mg/kg [1, 4]: 0%
O=C(CSc1nnc(-c2ccccc2Oc2ccccc2)o1)Nc1ccccc1 [Compound 8a, 2-((5-(2-phenoxyphenyl)-1,3,4-oxadiazol-2-yl)thio)-N -phenylacetamide]	0%	0%	62.5%	62.5%	50%	50%	50%	50%	50%	50%	50%	50%	
Cc1ccc(NC(=O)CSc2nnc(-c3ccccc3Oc3ccccc3)o2)cc1 [Compound 8b, 2-((5-(2-phenoxyphenyl)-1,3,4-oxadiazol-2-yl)thio)-N -(p-tolyl)acetamide]			0%	0%					25%	25%			responders at 50 mg/kg [1, 3]: 0%; responders at 50 mg/kg [1, 4]: 0%; responders at 50 mg/kg [2, 7]: 40%; responders at 50 mg/kg ([2]; read-out: MES %Protection): 40%; responders at 100 mg/kg [2, 6]: 75%; responders at 100 mg/kg ([2]; read-out: MES %Protection): 75%
COc1ccc(NC(=O)CSc2nnc(-c3ccccc3Oc3ccccc3)o2)cc1 [Compound 8c, N-(4-methoxyphenyl)-2-((5-(2-phenoxyphenyl)-1,3,4-oxadiazol-2-yl)thio)acetamide]			0%	0%	25%	25%	25%	25%	25%	25%	75%	75%	responders at 2 mg/kg [1, 3]: 0%; responders at 2 mg/kg [1, 4]: 0%
O=C(CSc1nnc(-c2ccccc2Oc2ccccc2)o1)Nc1ccc(F)cc1 [Compound 8d, N-(4-fluorophenyl)-2-((5-(2-phenoxyphenyl)-1,3,4-oxadiazol-2-yl)thio)acetamide]	0%	0%	25%	25%	50%	50%	50%	50%	50%	50%	25%	25%	
O=C(CSc1nnc(-c2ccccc2Oc2ccccc2)o1)Nc1ccc(F)cc1F [Compound 8e, N-(2,4-difluorophenyl)-2-((5-(2-phenoxyphenyl)-1,3,4-oxadiazol-2-yl)thio)acetamide]	0%	0%	25%	25%			25%	25%	25%	25%			
O=C(CSc1nnc(-c2ccccc2Oc2ccccc2)o1)Nc1ccccc1Cl [Compound 8f, N-(2-chlorophenyl)-2-((5-(2-phenoxyphenyl)-1,3,4-oxadiazol-2-yl)thio)acetamide]	0%	0%					0%	0%	25%	25%	75%	75%	
O=C(CSc1nnc(-c2ccccc2Oc2ccccc2)o1)Nc1cccc(Cl)c1 [Compound 8g, N-(3-chlorophenyl)-2-((5-(2-phenoxyphenyl)-1,3,4-oxadiazol-2-yl)thio)acetamide]	0%	0%	62.5%	62.5%	25%	25%	50%	50%	75%	75%	62.5%	62.5%	
O=C(CSc1nnc(-c2ccccc2Oc2ccccc2)o1)Nc1cc(Cl)cc(Cl)c1 [Compound 8h, N-(3,5-dichlorophenyl)-2-((5-(2-phenoxyphenyl)-1,3,4-oxadiazol-2-yl)thio)acetamide]	0%	0%	0%	0%	25%	25%	25%	25%	25%	25%	50%	50%	
O=C(CSc1nnc(-c2ccccc2Oc2ccccc2)o1)Nc1cccc(Br)c1 [Compound 8i, N-(3-bromophenyl)-2-((5-(2-phenoxyphenyl)-1,3,4-oxadiazol-2-yl)thio)acetamide]	0%	0%	0%	0%			50%	50%	25%	25%	50%	50%	
O=C(CSc1nnc(-c2ccccc2Oc2ccccc2)o1)Nc1ccc(Br)cc1 [Compound 8j, N-(4-bromophenyl)-2-((5-(2-phenoxyphenyl)-1,3,4-oxadiazol-2-yl)thio)acetamide]	0%	0%	25%	25%			50%	50%	50%	50%			responders at 10 mg/kg [1, 5]: 25%; responders at 10 mg/kg [1, 4]: 25%
O=C(CSc1nnc(-c2ccccc2Oc2ccccc2)o1)Nc1ccccc1[N+](=O)[O-] [Compound 8k, N-(2-nitrophenyl)-2-((5-(2-phenoxyphenyl)-1,3,4-oxadiazol-2-yl)thio)acetamide]					75%	75%	75%	75%	50%	50%			responders at 2 mg/kg [1, 3]: 0%; responders at 2 mg/kg [1, 4]: 0%; MES Number of animals protected / Number of tested animals [2]: 0/4
Cc1c(NC(=O)CSc2nnc(-c3ccccc3Oc3ccccc3)o2)cccc1[N+](=O)[O-] [Compound 8m, N-(2-methyl-3-nitrophenyl)-2-((5-(2-phenoxyphenyl)-1,3,4-oxadiazol-2-yl)thio)acetamide]			25%	25%	50%	50%			0%	0%			responders at 1 mg/kg [1, 3]: 0%; responders at 1 mg/kg [1, 4]: 0%; responders at 50 mg/kg [2, 7]: 0%; responders at 50 mg/kg ([2]; read-out: MES %Protection): 0%
CN1C(=O)CN=C(c2ccccc2)c2cc(Cl)ccc21 [Diazepam, reference compound]													MES Number of animals protected / Number of tested animals [2]: 0/6
